Measurements: PMC9088311, “Cyclic Thiosulfonates for Thiol-Mediated Uptake: Cascade Exchangers, Transporters, Inhibitors” (JACS Au, 2022)
Converted amounts (≈) assume the structure as drawn. Like-named read-outs stand apart in the source and are kept apart here.

Tests used:
in vitro = details: human
cathepsin B = cathepsin B (Homo sapiens, UniProt P07858); assay: Cathepsin B inhibition (preliminary, not shown); type: biochemical; details: 50 μM; preliminary results
cathepsin L = cathepsin L (Homo sapiens, UniProt P07711); assay: Cathepsin L inhibition (preliminary, not shown); type: biochemical; details: 50 μM; preliminary results
Sequence of cathepsin L (P07711 114-333, species assumed): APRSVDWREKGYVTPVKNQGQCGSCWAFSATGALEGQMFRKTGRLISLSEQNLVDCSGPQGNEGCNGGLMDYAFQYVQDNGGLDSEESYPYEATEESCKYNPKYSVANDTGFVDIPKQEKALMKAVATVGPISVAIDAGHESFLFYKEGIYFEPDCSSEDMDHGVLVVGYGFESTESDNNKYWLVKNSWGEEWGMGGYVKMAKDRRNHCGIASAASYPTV

HK cells, transporter 31 [1] = details: transporter 31 10 μM, pre-incubation (P), cited from earlier work; for IC50: read-out: IC50 (concentration needed to reach 50% inhibition)
HK cells, transporter 32 = system: HK cells, transporter 32; parameters: method as in PMID 34173696; details: transporter 32 0.5 or 1 μM, pre-incubation (P), cited from earlier work
HK cells, transporter 31 [2] = assay: HCHT imaging: inhibition of cytosolic delivery of ETP transporter 31; type: cell-based, Human; details: inhibitor 1 h; for IC15: read-out: MIC (concentration needed to reach 15% inhibition), transporter 31 10 μM
Summary of the method: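 HeLa Kyoto cells grown 24 h in FluoroBrite DMEM + 10% FBS on 96-well black plates were exposed to serially diluted inhibitors for 1 h at 37 °C, then given fluorescent transporter 31 at 10 μM for 30 min, either after washing the inhibitor out (pre-incubation) or with it still present (co-incubation). Cytosolic delivery was then scored by automated HCHT live-cell imaging with Hoechst 33342 and PI staining.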

HeLa Kyoto cells = details: with transporter 31; pre-incubation (P); cited from earlier work
trypsin = assay: Trypsin inhibition (preliminary, not shown); type: biochemical; details: 50 μM; preliminary results
[3] = Decarboxylation/stability of cyclic carbonate 11 in deuterated buffer; type: physicochemical; details: for t50 (decarboxylation of 11 to 12): deuterated buffer/DMSO-d6 95:5, rt
Procedure: Figure 3 (A) Comparison of ring-opening rate constants (k^O) for the exchange reactions of 2, 3, and 11–18 with 10 (Table 1); (a) deuterated buffer/DMSO-d6 95:5, rt, t50 = <15 min, 84 min, 18 h, and ≫24 h at pD 7.9, 6.7, 5.4, and 4.7, respectively. (B) Dynamic covalent ring opening of CTO 3 and thiol 10 to give product 9. (C) Original kinetic data for the equilibration of 3 with 10 at pD 2.7 in deuterated phosphate buffer/DMSO-d6 9:1. Gold triangles: 3; purple circles: 9; filled diamonds: 10; empty diamonds: homo-disulfide of 10. (D) Dependence of K (filled circles) and rate constants (relative, k at 90% D2O as 1, k^O filled diamonds, k^C empty diamonds) for 3 with 10 at pD 2.7 (estimate) on solvent polarity. (E–G) Fluoride complexes of 1,2-dithiane 1,1-dioxide (E), 1,2-dithiane 1-oxide (F), and 1,2-dithiane (G), calculated with M06-2X/6-311++G** (green: F^–, yellow: S, red: O, gray: C, white: H). (H, I) Chloride complexes of 3 (H) and 1 (I, green: Cl^–, in parentheses: bond length for F^–). (J) Fragmentation of 11 with 10; (b) 10, DMSO-d6, rt.
The strained cyclic carbonate 11 was considered to accelerate CTO opening and further stabilize the opened form (entry 12). However, at pD 7.9, carbonate 11 decarboxylated within 15 min to CTO alkene 12. This degradation decelerated with decreasing pD to afford stable carbonate 11 for at least 1 day at pD 4.7 (Figure 3A). Ring opening of 11 was too fast even at pD 2.7, it proceeded to near completion with a >100× higher rate than 3. Decarboxylated alkene 12 reacted also very fast, the apparently lower rate is the consequence of more favorable ring closure back to 12 due to preorganization by the cis alkene (entry 13). The alternative Michael addition of thiol 10 to alkene 12 was not observed (Figure S12).

[4] = Homo sapiens, 1 h, read-out: IC50 (concentration needed to reach 50% inhibition), transporter 31 10 μM, co-incubation (C)
[5] = Homo sapiens, 1 h, co-incubation (C)
[6] = transporter 31 10 μM, co-incubation (C)

| Compound | viability at 7 h, 50 µM (in vitro) | inhibition of cathepsin B (in words) (cathepsin B) | inhibition of cathepsin L (in words) (cathepsin L) | IC50 (HK cells, transporter 31 [1]) | MIC (concentration needed to reach 15% inhibition) (HK cells, transporter 31 [1]) | IC50 (HK cells, transporter 31 [2]; [4]) | IC15 (HK cells, transporter 31 [2]; [5]) | MIC (concentration needed to reach 15% inhibition) (HK cells, transporter 31 [2]; [6]) | RV50 (concentration needed to lower relative viability by 50%) (HeLa Kyoto cells) | inhibition of trypsin (in words) (trypsin) | further results |
| --- | --- | --- | --- | --- | --- | --- | --- | --- | --- | --- | --- |
| O=S1(=O)C[C@H](O)[C@H](O)CS1 (stereo in doubt) [Compound 3, (4S,5R)-4,5-dihydroxy-1,2-dithiane-1,1-dioxide] | 81% | inhibits | not L | > 1000 µM | 200 µM (≈ 36.8 µg/mL) | 35 µM | 3 µM | 3 µM | 1300 µM | inhibits | IC50 (HK cells, transporter 32; read-out: IC50 (concentration needed to reach 50% inhibition)): 550 µM; MIC (concentration needed to reach 15% inhibition) (HK cells, transporter 32): 250 µM (≈ 46.1 µg/mL) |
| [O-][S+]1C[C@@H](O)[C@@H](O)CS1 (stereo partly shown) [Compound 2] | – | – | – | > 5000 µM | 800 µM (≈ 135 µg/mL) | – | – | – | 4400 µM | – | – |
| O=C1O[C@H]2CSS(=O)(=O)C[C@H]2O1 [Compound 11] | 84% | – | – | – | – | > 50 µM | < 5 µM | <5 µM | – | – | IC15 (HK cells, transporter 31 [2]; Homo sapiens, 1 h, pre-incubation (P)): 1.5 µM; IC50 (HK cells, transporter 31 [2]; Homo sapiens, read-out: IC50 (concentration needed to reach 50% inhibition), transporter 31 10 μM, pre-incubation (P)): 9 µM; t50 (decarboxylation of 11 to 12) ([3]; pD 4.7): > 24 h; t50 (decarboxylation of 11 to 12) ([3]; pD 5.4): 18 h; t50 (decarboxylation of 11 to 12) ([3]; pD 6.7): 1.4 h; t50 (decarboxylation of 11 to 12) ([3]; pD 7.9): < 0.25 h; time stable ([3]; pD 4.7): at least 1 day; time of decarboxylation to CTO alkene 12 ([3]; pD 7.9): ≤ 15 min |
| O=S1(=O)C=C[C@@H](O)CS1 [Compound 12] | – | inhibit only cathepsin B | inhibit only cathepsin B | – | – | 7.2 ± 0.9 µM | < 1 µM | <1 µM | – | inhibit only cathepsin B | IC50 (HK cells, transporter 31 [2]; read-out: IC50 (concentration needed to reach 50% inhibition), transporter 31 10 μM, co-incubation (C)): 7 µM |
